Our source for the IC50 and DC50 values is US11890288B2, “Sulfonamide or sulfinamide compound having effect of inducing BRD4 protein degradation and pharmaceutical use thereof” (MITSUBISHI TANABE PHARMA CORPORATION, priority 2020, dated 2024).

What all share (format): cell-based
In experiment [1] the test system is human multiple myeloma MM.1S cell. Briefly: Cytotoxic action on MM.1S cells (WST-8, 96 hr). The note with it: MM1.S. The method, then: (§1) The cytotoxic action of the compound of the present invention against human cancer cells was evaluated in vitro. In this experiment, (+)-JQ1 (Nature volume 468, pages 1067-1073 (23 Dec. 2010)) known to have an inhibitory activity on the binding of BRD4 protein and a ligand therefor was used as a positive control drug. Respective cells were suspended in 10% FBS/RPMI1640, seeded in a 96 well plate and cultured at 5% CO2, 37° C. overnight. A test compound dissolved in DMSO was diluted with 10% FBS/RPMI1640 and added and the cells were further cultured for 96 hr. After culturing, the viable cell number was measured using a cell number measurement WST-8 kit (Kishida Chemical Co., Ltd.). As a control, the measurement was performed under conditions free of the test compound. The cytotoxic activity of the compound of the present invention against human prostate cancer LNCaP cells is shown in IC50 value in Table 1. The IC50 value is a concentration of the compound showing 50% cell survival rate when the cell survival rate thereof under compound untreated condition is 100%. It was calculated from the straight line connecting the cell survival rate at two points enclosing the 50% cell survival rate and the compound concentration. […]
Background: Tetrazolium assays rely on reduction of a dye to a coloured formazan, in cell work by metabolically active cells.

Experiment [2] deals with human diffuse large B-cell lymphoma SU-DHL-6 cell. Briefly: Cytotoxic action on SU-DHL-6 cells (WST-8, 96 hr). The note with it: SU-DHL-6, 96 hr. The method, then: as §1
Experiment [3] concerns human AR-V7 positive castration-resistant prostate cancer 22Rv1 cell. The experiment can be described thus: Cytotoxic action on 22Rv1 cells (WST-8, 96 hr). The note with it: 22Rv1, 96 hr. The method, then: as §1
Experiment [4] relates to human ovarian cancer A2780 cell. The experiment can be described thus: Cytotoxic action on A2780 cells (WST-8, 96 hr). The note with it: A2780, 96 hr. The protocol:
as §1

For experiment [5], the system named is human cisplatin-resistant ovarian cancer SK-OV-03 cell. Briefly: Cytotoxic action on SK-OV-03 cells (WST-8, 96 hr). The note with it: SK-OV-03, 96 hr. The method, then:
as §1

For experiment [6], the system named is human triple negative breast cancer MDA-MB-231 cell. Briefly: Cytotoxic action on MDA-MB-231 cells (WST-8, 96 hr). The note with it: MDA-MB-231, 96 hr. The method, then: as §1
In experiment [7] the test system is human uterus cervix cancer HeLa cell. Briefly: Cytotoxic action on HeLa cells (WST-8, 96 hr). The method, then:
as §1

Experiment [8] concerns human non-small cell lung cancer NCI-H2126 cell. The experiment can be described thus: Cytotoxic action on NCI-H2126 cells (WST-8, 96 hr). The note with it: NCI-H2126, 96 hr. The method, then: as §1
For experiment [9], the system named is human liver cancer HLF cell. Briefly: Cytotoxic action on HLF cells (WST-8, 96 hr). The protocol:
as §1

Experiment [10] deals with human fibrosarcoma HT1080 cell. Briefly: Cytotoxic action on HT1080 cells (WST-8, 96 hr). The note with it: HT-1080, HT1080, 96 hr. The protocol:
as §1

The target in another experiment is BRD4 protein (Homo sapiens (Human), UniProt O60885). The experiment can be described thus: BRD4 protein degradation inducing action in LNCaP cells (immunofluorescence, 6 hr). The note with it: anti-BRD4 fluorescence intensity. The gist of the method:
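Read-out is BRD4 immunofluorescence intensity (560/572 nm) after 6 hr compound treatment of LNCaP cells in 10% FBS/RPMI1640, with fixation, permeabilization and anti-BRD4 staining. Linear interpolation between the two concentrations flanking 50% of untreated intensity gives DC50.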

As a reminder, the IC50 is the midpoint of a concentration-inhibition curve. Usually DC50 stands for the midpoint of the concentration-degradation curve. High values mean degradation only at high concentration, low ones degradation at low concentration. Consider `COC(=O)C[C@@H]1N=C(c2ccc(-c3ccc(C(=O)NCc4ccc(S(=O)(=O)Nc5ccc(C)c6c(C#N)c[nH]c56)cc4)cc3)cc2)c2c(sc(C)c2C)-n2c(C)nnc21` [Example 1, methyl [(6S)-4-{4′-[({4-[(3-cyano-4-methyl-1H-indol-7-yl)sulfamoyl]phenyl}methyl)carbamoyl][1,1′-biphenyl]-4-yl}-2,3,9-trimethyl-6H-thieno[3,2-f][1,2,4]triazolo[4,3-a][1,4]diazepin-6-yl]acetate], for which the IC50 in experiment [1] amounted to 0.026 nM; in experiment [2], 0.44 nM; in experiment [3], 0.71 nM; in experiment [4], 0.19 nM; in experiment [5], 41 nM; in experiment [6], 4 nM. Moreover, the IC50 in experiment [7] was found to be 27 nM; in experiment [8] it was 6.6 nM; in experiment [9] it was 2.9 nM; in experiment [10], 13 nM. This molecule also displayed a DC50 on BRD4 protein of 0.15 nM.
